The values below come from article PMC6495113, “Sesquiterpenoids and 2-(2-phenylethyl)chromones respectively acting as α-glucosidase and tyrosinase inhibitors from agarwood of an Aquilaria plant” (Journal of Enzyme Inhibition and Medicinal Chemistry, 2019).

Assay [1] deals with T1, tyrosinase (Agaricus bisporus, UniProt C7FF04). Kind of assay: Tyrosinase inhibitory assay (L-tyrosine substrate). Conditions: read-out: tyrosinase inhibitory activity 100 μM (%).
Description: After 5 min pre-incubation of the mixture at 37 °C, 50 µL of 2 mM L-tyrosine in buffer were added and incubated for additional 20 min at 37 °C. The control wells contained DMSO instead of compound, and the blank wells were added with buffer in place of L-tyrosine. […] The percentage inhibition was calculated using the formula as below: % inhibition=[1–(ODcompound–ODblank)/(ODcontrol–ODblank)]×100
The target of assay [2] is T1, tyrosinase. Nature of the assay: Kinetic analysis of tyrosinase inhibition (Lineweaver-Burk, secondary re-plots). It counts as biochemical, mushroom. As for the experimental part:
. Briefly, 130 µL of tyrosinase (50 U/mL) solvated in 50 mM phosphate buffer (pH: 6.8) were mixed with 20 µL of 2-fold serial dilutions (from 1 mM to 0.03125 mM) of compounds in DMSO, and transferred into a 96-well plate. After 5 min pre-incubation of the mixture at 37 °C, 50 µL of 2 mM L-tyrosine in buffer were added and incubated for additional 20 min at 37 °C. The control wells contained DMSO instead of compound, and the blank wells were added with buffer in place of L-tyrosine. Kojic acid was used as a positive control. The absorbance was measured at 495 nm using microplate reader. The percentage inhibition was calculated using the formula as below: % inhibition=[1–(ODcompound–ODblank)/(ODcontrol–ODblank)]×100
(§1) The data were expressed as double-reciprocal Lineweaver − Burk plot and the inhibition constants (KI and KIS) were obtained from secondary plots of slope and y intercept of lines from Lineweaver-Burk plot against inhibitor[25].

The target in assay [3] is T2, α-glucosidase (Saccharomyces cerevisiae, UniProt P53341). Kind of assay: α-Glucosidase inhibitory assay (p-NPG substrate). Conditions: for inhibition at 750 µM: read-out: α-glucosidase inhibitory activity 750 μM (%).
T2 sequence (P53341 whole entry): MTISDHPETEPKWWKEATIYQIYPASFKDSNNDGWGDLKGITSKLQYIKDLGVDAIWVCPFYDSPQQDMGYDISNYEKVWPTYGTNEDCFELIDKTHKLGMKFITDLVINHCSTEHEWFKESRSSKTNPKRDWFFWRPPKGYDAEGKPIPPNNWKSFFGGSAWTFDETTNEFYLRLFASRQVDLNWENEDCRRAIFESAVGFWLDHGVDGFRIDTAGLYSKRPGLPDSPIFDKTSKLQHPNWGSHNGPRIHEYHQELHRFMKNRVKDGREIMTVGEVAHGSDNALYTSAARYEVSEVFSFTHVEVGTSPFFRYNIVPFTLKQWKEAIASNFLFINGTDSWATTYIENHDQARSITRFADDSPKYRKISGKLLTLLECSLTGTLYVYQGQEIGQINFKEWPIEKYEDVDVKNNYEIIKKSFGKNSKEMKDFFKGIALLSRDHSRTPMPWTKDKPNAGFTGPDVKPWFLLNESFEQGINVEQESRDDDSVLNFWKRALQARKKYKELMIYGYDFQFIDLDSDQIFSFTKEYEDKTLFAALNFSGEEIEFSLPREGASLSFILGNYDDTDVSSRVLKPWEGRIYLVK
Description: The α-glucosidase (G5003, Sigma-Aldrich) was obtained from Saccharomyces cerevisiae and the enzyme inhibitory assay was performed using formerly described method[24] with some modifications. […] The percentage inhibition was calculated using the following equation: % inhibition=[1–(ODcompound–ODblank)/(ODcontrol–ODblank)]×100
For assay [4], the target named is T2, α-glucosidase. Nature of the assay: Kinetic analysis of α-glucosidase inhibition (Lineweaver-Burk, secondary plot). It counts as biochemical. As for the experimental part: The α-glucosidase (G5003, Sigma-Aldrich) was obtained from Saccharomyces cerevisiae and the enzyme inhibitory assay was performed using formerly described method[24] with some modifications. […]. The OD values were measured at 405 nm with microplate reader. Acarbose was used as reference compound. The percentage inhibition was calculated using the following equation: % inhibition=[1–(ODcompound–ODblank)/(ODcontrol–ODblank)]×100
as §1

T1 sequence (C7FF04 1-392): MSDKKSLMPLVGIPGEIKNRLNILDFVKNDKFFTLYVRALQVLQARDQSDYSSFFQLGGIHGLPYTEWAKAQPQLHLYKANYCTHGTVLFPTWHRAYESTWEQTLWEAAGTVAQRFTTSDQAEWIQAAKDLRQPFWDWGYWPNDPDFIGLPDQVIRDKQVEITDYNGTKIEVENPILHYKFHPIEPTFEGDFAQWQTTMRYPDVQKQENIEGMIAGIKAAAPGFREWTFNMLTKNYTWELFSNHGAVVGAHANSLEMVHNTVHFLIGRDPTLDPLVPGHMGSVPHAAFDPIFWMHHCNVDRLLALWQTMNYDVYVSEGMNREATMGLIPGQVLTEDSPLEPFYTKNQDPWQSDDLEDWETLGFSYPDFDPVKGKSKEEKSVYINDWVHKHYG

As to `COc1ccc(CCc2cc(=O)c3cc(O)cc(O)c3o2)cc1` [Compound 14, 6,8-dihydroxy-2-[2-(4-methoxyphenyl)ethyl]chromone], the inhibition at 100 µM at tyrosinase [1] is 65 ± 1.8%. At tyrosinase [2] (Lineweaver-Burk plot), the “type of inhibition of tyrosinase” value was “mixed type inhibitors”. Further, the “inhibition constant KIS, binding with enzyme-substrate complex (tyrosinase)” value at tyrosinase [2] (secondary re-plot of y intercept vs. inhibitor) is given as 72.8 µM. Also, on α-glucosidase [3], the inhibition at 750 µM is < 30%.
For the molecule `CC1CCC2C(C)(C)C(C(=O)O)C3CCC12C3` (centres unmarked) [Compound 9, Jinkoholic acid], at tyrosinase [1], the inhibition at 100 µM was < 30%. Also, the inhibition at 750 µM at α-glucosidase [3] was 48.9 ± 1.1%.
`C=C1C2CCC3(C(CO)CCC3C1(C)C)C2O` (centres unmarked) [Compound 1, Agarozizanol A]: the inhibition at 100 µM at tyrosinase [1] is < 30%. The inhibition at 750 µM on α-glucosidase [3] was determined as 37.4 ± 1.4%.
On the same counts, the results for `O=c1cc(CCc2ccccc2)oc2c1C(O)C(O)C(O)C2Cl` (centres unmarked) [Compound 15, 8-chloro-2–(2-phenylethyl)-5,6,7-trihydroxy-5,6,7,8-tetrahydrochromone] are 34.8 ± 1.4% and < 30%.
Turning to `CC1CCC2C(C)(C)C(CO)C3(O)CCC12C3` (centres unmarked) [Compound 2, Agarozizanol B], at tyrosinase [1], the inhibition at 100 µM was < 30%. Further, the inhibition at 750 µM on α-glucosidase [3] stood at 42 ± 2.7%.
On the same counts, the results for `CC1CCC2C13CCC(C3)C(C)(O)C2(C)C` (centres unmarked) [Compound 7, Jinkohol I] are < 30% and 86.9 ± 0.4%.
For `C[C@H]1O[C@H](O[C@H]2[C@H](O)[C@@H](O)[C@@H](O[C@H]3[C@H](O)[C@@H](O)C(O)O[C@@H]3CO)O[C@@H]2CO)[C@H](O)[C@@H](O)[C@@H]1N[C@H]1C=C(CO)[C@@H](O)[C@H](O)[C@H]1O` (some centres unmarked) [acarbose, reference compound], the “α-glucosidase inhibitory activity 750 μM (%)” value on α-glucosidase [3] (750 μM, means ± SD, three individual experiments) is 50.7 ± 1.2%. The α-glucosidase inhibition rate at α-glucosidase [3] (concentration of 50 µg/mL) is on record as 62.06 ± 4.77%.
Turning to `CC1CCC2C13CCC(C3O)C(C)(O)C2(C)C` (centres unmarked) [Compound 3, Agarozizanol C], on tyrosinase [1], the inhibition at 100 µM is < 30%. Also, the inhibition at 750 µM on α-glucosidase [3] was < 30%.
`COc1ccc(CCc2cc(=O)c3cc(OC)c(O)cc3o2)cc1O` [Compound 12, 6-methoxy-7-hydroxy-2-[2-(3-hydroxy-4-methoxyphenyl)ethyl]chromone]: the inhibition at 100 µM at tyrosinase [1] is < 30%. In addition, at α-glucosidase [3], the inhibition at 750 µM is < 30%.
As to `COc1ccc(CCc2cc(=O)c3cc(O)c(OC)cc3o2)cc1O` [Compound 13, 6-hydroxy-7-methoxy-2-[2-(3-hydroxy-4-methoxyphenyl)ethyl]chromone], the inhibition at 100 µM on tyrosinase [1] amounted to 53.4 ± 0.7%. Besides, the inhibition at 750 µM on α-glucosidase [3] was < 30%.
For `CC1=C2C(O)CC(CO)C23CCC(C3)C1(C)C` (centres unmarked) [Compound 6, Agarozizanol F], in that order: < 30% and < 30%.
On the same counts, the results for `CC1CCC2C13CCC(C3)C(O)(CO)C2(C)C` (centres unmarked) [Compound 4, Agarozizanol D] are < 30% and 49.9 ± 1.8%.
For `COc1ccc(CCc2cc(=O)c3c(o2)C(Cl)C(O)C(O)C3O)cc1` (centres unmarked) [Compound 16, 8-chloro-2–(2-(4-methoxyphenyl)ethyl)-5,6,7-trihydroxy-5,6,7,8-tetrahydrochromone], at tyrosinase [1], the inhibition at 100 µM is < 30%. Besides, at α-glucosidase [3], the inhibition at 750 µM is < 30%.
With `CC1=C2CCC(CO)C23CCC(C3)C1(C)C` (centres unmarked) [Compound 10, isokhusenol], the inhibition at 100 µM on tyrosinase [1] is < 30%. Moreover, at α-glucosidase [3], the inhibition at 750 µM turned out to be 92.1 ± 3.4%.
For `CC1CCC2C(C)(C)C(CO)C3CCC12C3` (centres unmarked) [Compound 8, Jinkohol II], in that order: < 30% and 77.3 ± 1%.
As to `CC1=C2CCC(C)C23CCC(C3)C1(C)CO` (centres unmarked) [Compound 5, Agarozizanol E], the inhibition at 100 µM on tyrosinase [1] is < 30%. The “type of inhibition of α-glucosidase” value on α-glucosidase [4] is “uncompetitive inhibitors”. Also, on α-glucosidase [3], the inhibition at 750 µM worked out at 93.4 ± 3.1%.
